Ends that are not written are not given here.
Tested on: EAE
Parameters: species or system New Zealand white rabbits
Conditions: rabbit, in vivo
Experimental: The emulsion was injected SC in multiple sites in the dorsal area of the neck and the tail. Rabbits were immunized either with the free peptide or with peptide conjugated to KLH. […] All rabbits were bled via the ear vein after they were placed in restraining cages and tranquilized with ace-promozine. To prevent hypovolemia, the amount of blood removed was replaced with sterile saline. Sera from individual rats or rabbits were prepared from clotted blood by centrifugation. All sera were decomplemented for 30 minutes at 56°C and frozen in small aliquots to which sodium azide was added.

For DMGHGLRLIHYSYDVNSTEKG [TCR Vβ8(39-59)], which “Clinical Signs of EAE” value is on record?
The value was “None”.
